According to patent US9540359B2, “Dihydrooxazine or oxazepine derivatives having BACE1 inhibitory activity” (Shionogi & Co., Ltd., priority 2012, dated 2017):

Each molecule was assayed against Recombinant human BACE1 (Homo sapiens (Human), UniProt P56817) (assay: Assay of BACE1 inhibiting activity (HTRF, substrate peptide cleavage)). Conditions: 50% inhibitory concentration against enzymatic activity; 30° C., 3.5 hours, pH 5.0; read-out: IC50 value.
Chain of Recombinant human BACE1 (P56817 46-501): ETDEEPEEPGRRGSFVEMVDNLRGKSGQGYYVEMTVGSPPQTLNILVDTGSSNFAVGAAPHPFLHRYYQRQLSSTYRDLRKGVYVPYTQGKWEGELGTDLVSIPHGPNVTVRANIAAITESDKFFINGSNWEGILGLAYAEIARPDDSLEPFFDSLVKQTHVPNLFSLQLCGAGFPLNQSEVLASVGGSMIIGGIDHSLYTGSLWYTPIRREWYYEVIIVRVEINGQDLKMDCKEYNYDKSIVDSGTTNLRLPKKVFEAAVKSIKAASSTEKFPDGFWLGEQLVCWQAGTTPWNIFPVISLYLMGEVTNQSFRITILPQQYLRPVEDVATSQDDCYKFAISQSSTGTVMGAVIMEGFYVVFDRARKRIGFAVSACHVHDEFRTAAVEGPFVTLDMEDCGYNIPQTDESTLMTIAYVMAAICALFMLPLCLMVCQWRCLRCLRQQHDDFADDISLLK
Type: biochemical
Experimental: 48.5 μL of substrate peptide solution (Biotin-[…]-Eu: X=ε-amino-n-capronic acid, Eu=Europium cryptate) was added to each well of 96-hole half-area plate (a black plate: Costar), and after addition of 0.5 μl of the compound of the present invention (DMSO solution) and 1 μl of Recombinant human BACE1 (R&D Systems), the reaction mixture was incubated at 30° C. for 3.5 hours. […] The final concentrations of the substrate peptide and Recombinant human BACE1 were adjusted to 18 nmol/L and 7.4 nmol/L, respectively, and the reaction was performed in sodium acetate buffer (50 mmol/L sodium acetate, pH 5.0, 0.008% Triton X-100). After the incubation for reaction, 50 μl of 8.0 μg/ml Streptavidin-XL665 (CIS bio international) dissolved in phosphate buffer (150 mmol/L K2HPO4-KH2PO4, pH 7.0, 0.008% Triton X-100, 0.8 mol/L KF) was added to each well and left stand at 30° C. for 45 minutes. After then, fluorescence intensity was measured (excitation wavelength: 320 nm, measuring wavelength: 620 nm and 665 nm) using Wallac 1420 multilabel counter (Perkin Elmer life sciences). Enzymatic activity was determined from counting ratio of each wavelength (10,000× Count 665/Count 620) and 50% inhibitory concentration against the enzymatic activity (IC50) was calculated.
For `CC1(C)C[C@@](C)(c2cc(NC(=O)c3ccc(C#N)cn3)ccc2F)N=C(N)O1` [Compound I-1], the IC50 was 94.2 nM. With `CC12OC(N)=N[C@](CF)(c3cc(NC(=O)c4ccc(C#N)cn4)ccc3F)C1O2` (some centres unmarked) [Compound I-2] the IC50 was 77.3 nM. Molecule `Cc1cc(C#N)cnc1C(=O)Nc1ccc(F)c([C@]2(C(F)F)CCOC(N)=N2)c1` [Compound I-4] has an IC50 of 90.2 nM. Molecule `C[C@@]1(c2cc(NC(=O)c3ccc(C#N)cn3)ccc2F)CCCOC(N)=N1` [Compound I-13] has an IC50 of 153 nM. `C#C[C@@]1(c2cc(NC(=O)c3ccc(C#N)cn3)ccc2F)CCOC(N)=N1` [Compound I-14] gave an IC50 of 96.8 nM. Molecule `C#C[C@]1(c2cc(NC(=O)c3ccc(C#N)cn3)ccc2F)N=C(N)O[C@@H]2C[C@@H]21` [Compound I-21] has an IC50 of 65.4 nM. Work on `C[C@@]1(c2cc(NC(=O)c3ccc(C#N)cn3)ccc2F)CC2(COC2)OC(N)=N1` [Compound I-56] yielded an IC50 of 25 nM. Work on `C#C[C@]1(c2cc(NC(=O)c3cnc(OCF)cn3)ccc2F)N=C(N)O[C@@H]2COC[C@@H]21` [Compound I-72] yielded an IC50 of 13.6 nM. `C[C@]1(c2cc(NC(=O)c3coc(C(F)F)n3)ccc2F)N=C(N)O[C@H](CF)[C@@H]1F` [Compound I-86] showed an IC50 of 32.9 nM. Molecule `C[C@]1(c2cc(NC(=O)c3ccc(C#N)cn3)ccc2F)N=C(N)OC2(COC2)[C@@H]1F` [Compound I-95] has an IC50 of 20.7 nM. `C[C@H]1OC(N)=N[C@](CF)(c2cc(NC(=O)c3ccc(C#N)cn3)ccc2F)[C@H]1CF` [Compound I-100] was tested, and the IC50 was 113 nM.

Same assay, conditions: bound stated for a list of compounds; 30° C., 3.5 hours, pH 5.0; read-out: IC50 values
In the case of `Cc1cc(C#N)cnc1C(=O)Nc1ccc(F)c([C@@]2(C)N=C(N)O[C@H](CF)[C@@H]2F)c1` [Compound I-26], the IC50 is reported as at most 1000 nM. In the case of `COC[C@@H]1C[C@@](CF)(c2cc(NC(=O)c3ccc(C#N)cn3)ccc2F)N=C(N)O1` [Compound I-37], the IC50 is reported as at most 1000 nM. `NC1=N[C@@](c2cc(NC(=O)c3cnc(OCF)cn3)ccc2F)(C(F)F)CCCO1` [Compound I-47] was tested, and the IC50 was at most 1000 nM. In the case of `C#C[C@]1(c2cc(NC(=O)c3coc(C(F)F)n3)ccc2F)N=C(N)O[C@@H]2COC[C@@H]21` [Compound I-73], the IC50 is reported as at most 1000 nM. Work on `C[C@]1(c2cc(NC(=O)c3coc(CF)n3)ccc2F)N=C(N)O[C@H](CF)[C@@H]1F` [Compound I-85] yielded an IC50 of at most 1000 nM. `N#Cc1ccc(C(=O)Nc2ccc(F)c([C@]34CCO[C@H]3COC(N)=N4)c2)nc1` [Compound I-108] gave an IC50 of at most 1000 nM. `N#Cc1ccc(C(=O)Nc2ccc(F)c([C@]34CCO[C@H]3[C@@H](CF)OC(N)=N4)c2)nc1` [Compound I-110] was tested, and the IC50 was at most 1000 nM. Work on `NC1=N[C@@]2(c3cc(NC(=O)c4cnc(OCF)cn4)ccc3F)CCO[C@H]2[C@@H](CF)O1` [Compound I-111] yielded an IC50 of at most 1000 nM. With `CO[C@H]1[C@@H](C(F)F)OC(N)=N[C@]1(C)c1cc(NC(=O)c2ccc(C#N)cn2)ccc1F` [Compound I-116] the IC50 was at most 1000 nM. `CO[C@H]1[C@@H](C(F)F)OC(N)=N[C@]1(C)c1cc(NC(=O)c2cnc(OCF)cn2)ccc1F` [Compound I-118] gave an IC50 of at most 1000 nM. With `CO[C@H]1[C@@H](C(F)F)OC(N)=N[C@]1(C)c1cc(NC(=O)c2ccc(F)cn2)ccc1F` [Compound I-119] the IC50 was at most 1000 nM.

What follows are molecules tested on β-Amyloid (Aβ) production in neuroblastoma SH-SY5Y cells (SH/APPwt) (assay: Measurement of β-amyloid (Aβ) production inhibitory effect in cell). Conditions: Homo sapiens, amount needed to inhibit Aβ production by 50%, Amyloid β1-40 in culture supernatant, 24 hours.
Type: cell-based
Experimental: Neuroblastoma SH-SY5Y cells (SH/APPwt) with human wild-type β-APP excessively expressed therein were prepared at 8×10^5 cells/mL, and 150 μl portions thereof were inoculated into each well of a 96-well culture plate (Falcon). The cells were cultured for 2 hours at 37° C. in a 5% gaseous carbon dioxide incubator. Then, a solution which have been preliminarily prepared by adding and suspending the compound of the present invention (DMSO (dimethyl sulfoxide) solution) so as to be 2 μl/50 μl medium was added to the cell sap. Namely, the final DMSO concentration was 1%, and the amount of the cell culture was 200 μl. After the incubation was performed for 24 hours from the addition of the test compound, 100 μl of the culture supernatant was collected from each fraction. The amount of the Aβ in each fraction was measured. The Aβ amount was measured as follows. 10 μl of a homogeneous time resolved fluorescence (HTRF) measurement reagent (Amyloid β1-40 peptide; CIS bio international) and 10 μl of the culture supernatant were put into a 384-well half area microplate (black microplate, Costar) and mixed with each other, and then left standing overnight at 4° C. while the light was shielded. Then, the fluorescence intensity (excitation wavelength: 337 nm, measurement wavelength: 620 nm and 665 nm) was measured with a micro plate reader (Artemis K-101; FURUNO […]). […]
Molecule `N#Cc1ccc(C(=O)Nc2ccc(F)c([C@]3(C(F)(F)F)CCOC(N)=N3)c2)nc1` [Compound I-38] has an IC50 of 509 nM.
